System: M. tuberculosis H37Rv
Format: cell-based, Mycobacterium tuberculosis
Conditions: for frequency of spontaneous resistance: M. tuberculosis H37Rv, 10× the MIC

Row | Structure (SMILES) | resistance range of mutants above the MIC level of the parental strain | frequency of spontaneous resistance | cross-resistance of mutants resistant to 44 and 52
1 | COc1ccc(C(=O)Nc2nc(-c3ccccn3)cs2)cc1 [Compound 44] | 2–8 fold | ~ 10^−5 | –
2 | O=C(Nc1nc(-c2ccccn2)cs1)c1cccc(Br)c1 [Compound 52] | 2–8 fold | ~ 10^−5 | –
3 | CCc1cc(C(N)=S)ccn1 [ethionamide, reference compound] | – | – | not to be cross-resistant
